Results reported in US4005093A, “2-Naphthyl-lower-alkylamines” (Sterling Drug Inc., priority 1975, dated 1977).
Counter-ions that a name gives are not always drawn.

Key:
[1] = test system: adjuvant-induced arthritis; experiment: modification of the inhibition of adjuvant-induced arthritis test (adjuvant arthritis, AA); type: in vivo; conditions: oral
Method: (§1) Anti-inflammatory activity was determined using (1) the inhibition of carrageenin-induced foot edema test essentially described by Van Arman et al., J. Pharmacol. Exptl. Therap. 150, 328 (1965) as modified by Winter et al., Proc. Soc. Exp. Biol. and Med. 111, 544 (1962) and (2) a modification of the inhibition of adjuvant-induced arthritis test described by Pierson, J. Chronic Diseases 16, 863 (1963) and Glenn et al., Am. J. Vet. Res. 26, 1180 (1965). […] Data so-obtained, given in terms of percent inhibition at a dose expressed in terms of […] (μM)/kg., are given below. All data were obtained on oral administration.

[2] = test system: carrageenin-induced foot edema; experiment: inhibition of carrageenin-induced foot edema test (carrageenin edema, CE); type: in vivo; conditions: oral
Method: as §1

[3] = dose 0.01 (millimoles (μM)/kg [sic])
[4] = dose 0.04 millimoles (μM)/kg [sic], hydrochloride
[5] = dose 0.16 millimoles (μM)/kg [sic], hydrochloride
[6] = dose 0.08 (millimoles (μM)/kg [sic]), hydrochloride
[7] = dose 0.324 millimoles (μM)/kg [sic], hydrochloride
[8] = dose 0.16 millimoles (μM)/kg [sic]
[9] = dose 0.08 (millimoles (μM)/kg [sic])
[10] = dose 0.324 millimoles (μM)/kg [sic]
[11] = dose 0.005 (printed millimoles (μM)/kg)
[12] = dose 0.02 (printed millimoles (μM)/kg)

Row | SMILES | AA (% Inhib./μM/kg.) [1, 3] [%] | AA (% Inhib./μM/kg.) [1, 5] [%] | CE (% Inhib./μM/kg.) [2, 6] [%] | CE (% Inhib./μM/kg.) [2, 7] [%] | CE (% Inhib./μM/kg.) [2, 9] [%] | CE (% Inhib./μM/kg.) [2, 10] [%] | other results
1 | COc1ccc2cc(C(C)CN3CCCCC3CC3CCCCC3)ccc2c1.Cl (stereo not drawn) [1 (α-Isomer), 2-cyclohexylmethyl-1-[2-(6-methoxy-2-naphthyl)-2-methylethyl]piperidine hydrochloride] | 0 | 86 | 14 | 40 | – | – | AA (% Inhib./μM/kg.) [1, 4]: 8%
2 | COc1ccc2cc(C(C)CN3CCCCC3CC3CCCCC3)ccc2c1.Cl (stereo not drawn) [1 (β-Isomer), 2-cyclohexylmethyl-1-[2-(6-methoxy-2-naphthyl)-2-methylethyl]piperidine hydrochloride] | 0 | 89 | 16 | 47 | – | – | AA (% Inhib./μM/kg.) [1, 4]: 12%
3 | COc1ccc2cc(C(C)CN3CCCCC3CC3CCCCC3)ccc2c1.Cl (stereo not drawn) [1 (γ-Isomer), 2-cyclohexylmethyl-1-[2-(6-methoxy-2-naphthyl)-2-methylethyl]-piperidine hydrochloride] | – | 86 | 24 | 45 | – | – | AA (% Inhib./μM/kg.) ([1]; dose 0.018 (printed millimoles (μM)/kg)): 2%; AA (% Inhib./μM/kg.) ([1]; dose 0.053 (printed millimoles (μM)/kg)): 49%
4 | COc1ccc2cc(C(C)CN3CCCCC3C3CCCCC3)ccc2c1 (stereo not drawn) [Example 2, 2-cyclohexyl-1-[2-(6-methoxy-2-naphthyl)-2-methylethyl-]piperidine hydrochloride] | 17 | – | – | – | 35 | 69 | AA (% Inhib./μM/kg.) ([1]; dose 0.04 millimoles (μM)/kg [sic]): 31%; AA (% Inhib./μM/kg.) [1, 8]: 61%
5 | COc1ccc2cc(C(C)CN3CCCCC3CCC3CCCCC3)ccc2c1 (stereo not drawn) [Example 3, 2-(2-cyclohexylethyl)-1-[2-(6-methoxy-2-naphthyl)-2-methylethyl]-piperidinehydrochloride] | – | – | – | – | 66 | 52 | AA (% Inhib./μM/kg.) [1, 11]: 0%; AA (% Inhib./μM/kg.) [1, 12]: 40%; AA (% Inhib./μM/kg.) [1, 9]: 16%
6 | COc1ccc2cc(C(C)CN3CCC(CCC4CCCCC4)CC3)ccc2c1 (stereo not drawn) [Example 4, 4-(2-cyclohexylethyl)-1-[2-(6-methoxy-2-naphthyl)-2-methylethyl]-piperidine] | – | – | – | – | 22 | 38 | AA (% Inhib./μM/kg.) [1, 11]: 0%; AA (% Inhib./μM/kg.) [1, 12]: 0%; AA (% Inhib./μM/kg.) [1, 9]: 34%
7 | COc1ccc2cc(CCN3CCCCC3CC3CCCCC3)ccc2c1 (stereo not drawn) [Example 5, 2-cyclohexylmethyl-1-[2-(6-methoxy-2-naphthyl)ethyl]piperidine] | – | – | – | – | 29 | 68 | AA (% Inhib./μM/kg.) [1, 10]: 55%
8 | CCN(CC)CCCC(C)NCC(C)c1ccc2cc(OC)ccc2c1 (stereo not drawn) [Example 6, N-[2-(6-methoxy-2-naphthyl)-2-methylethyl]-N-[5-(N',N'-diethyl-amino)-2-pentyl]amine] | – | – | – | – | 28 | 26 | AA (% Inhib./μM/kg.) [1, 8]: 73%
